Experimental data as given in patent publication US6825185B2, “Substituted aryl compounds as novel cyclooxygenase-2 selective inhibitors, compositions and methods of use” (NitroMed, Inc., priority 2000, dated 2004).

How the values were obtained:
[1] = target: T1, COX-2 (Homo sapiens, UniProt P35354); test: COX-2 enzyme activity in human whole blood (LPS induced, thromboxane B2 EIA); assay type: cell-based; design: Human blood (≈50 mL) from male or female donors who had not received any aspirin or NSAIDs for 14 days; endogenous in cells; host or cells: human whole blood from donors, LPS-induced; conditions: test compound at 10 μM
T1 sequence (P35354 18-604): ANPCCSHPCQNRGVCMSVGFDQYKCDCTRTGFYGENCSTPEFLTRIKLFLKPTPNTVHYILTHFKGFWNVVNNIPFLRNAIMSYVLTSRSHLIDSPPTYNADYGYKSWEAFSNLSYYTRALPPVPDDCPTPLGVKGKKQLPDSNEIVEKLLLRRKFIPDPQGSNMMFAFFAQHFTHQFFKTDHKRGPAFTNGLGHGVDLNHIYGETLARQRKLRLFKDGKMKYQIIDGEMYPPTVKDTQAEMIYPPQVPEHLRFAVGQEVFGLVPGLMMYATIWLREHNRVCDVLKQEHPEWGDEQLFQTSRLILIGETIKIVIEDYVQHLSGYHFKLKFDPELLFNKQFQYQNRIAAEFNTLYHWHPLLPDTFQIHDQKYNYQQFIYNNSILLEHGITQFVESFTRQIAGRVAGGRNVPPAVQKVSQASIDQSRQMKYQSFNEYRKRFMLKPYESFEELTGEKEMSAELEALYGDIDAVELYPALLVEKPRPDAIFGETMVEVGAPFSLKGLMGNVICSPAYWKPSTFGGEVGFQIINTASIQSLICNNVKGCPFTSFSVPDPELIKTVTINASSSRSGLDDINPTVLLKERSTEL

[2] = target: COX-1 (Homo sapiens, UniProt P23219); test: COX-1 enzyme activity in human whole blood (A23187 stimulated, thromboxane B2 EIA); assay type: cell-based; design: Human blood (≈50 mL) from male or female donors who had not received any aspirin or NSAIDs for 14 days; endogenous in cells; host or cells: human whole blood from donors; conditions: test compound at 100 μM
Chain of COX-1 (P23219 24-599): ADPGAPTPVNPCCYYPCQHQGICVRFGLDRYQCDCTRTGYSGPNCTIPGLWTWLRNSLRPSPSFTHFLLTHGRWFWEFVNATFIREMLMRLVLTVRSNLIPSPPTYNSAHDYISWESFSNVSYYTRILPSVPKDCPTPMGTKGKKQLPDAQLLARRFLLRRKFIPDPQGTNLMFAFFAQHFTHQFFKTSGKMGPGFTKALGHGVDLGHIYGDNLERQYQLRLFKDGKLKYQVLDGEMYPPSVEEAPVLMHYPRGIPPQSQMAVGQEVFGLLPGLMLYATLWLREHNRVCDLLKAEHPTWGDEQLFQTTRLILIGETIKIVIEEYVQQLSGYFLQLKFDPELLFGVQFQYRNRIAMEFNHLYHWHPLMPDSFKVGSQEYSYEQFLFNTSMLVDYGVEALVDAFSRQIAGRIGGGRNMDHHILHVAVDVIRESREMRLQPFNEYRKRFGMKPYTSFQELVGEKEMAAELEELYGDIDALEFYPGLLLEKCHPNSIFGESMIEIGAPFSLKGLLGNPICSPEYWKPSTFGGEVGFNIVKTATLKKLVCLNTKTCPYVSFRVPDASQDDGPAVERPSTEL

SMILES | melting point [°C] | inhibition at 10 µM [1] [%] | inhibition at 100 µM [2] [%]
CS(=O)(=O)c1ccc(-c2ccccc2C=C2CCCCC2)cc1 [Example 24e, 1-(2-(Cyclohexylidenemethyl)phenyl)-4-(methylsulfonyl)benzene] | 83 | 90 | 55
CS(=O)(=O)c1ccc(-c2ccccc2C(=O)c2cccc(F)c2)cc1 [Example 25c, 3-Fluorophenyl 2-(4-(methylsulfonyl)phenyl)phenyl ketone] | 105 to 106 | 40 | 40
CS(=O)(=O)c1ccc(-c2ccccc2Cc2cccc(F)c2)cc1 [Example 26, 1-(2-((3-Fluorophenyl)methyl)phenyl)-4-(methylsulfonyl)benzene] | 97 to 98 | 10 | 25
